# Assay results published in patent US11667630B2, “Nitrogen-containing 6-membered cyclic compound” (Asahi Kasei Pharma Corporation, priority 2017, dated 2023).
# Key:
# human EP2 receptor = molecular target: T1, human EP2 receptor (Homo sapiens, UniProt P43116); assay: Receptor binding test, [3H]PGE2 binding inhibition, EP2; conditions: [3H]PGE2 2.56 nmol/L, membrane fraction HTS185M, 25°C 60 minutes
# T1 construct: purchased Merck Millipore HTS185M
# Method: (§1) In order to evaluate selectivity to each EP receptor subtype, [^3H]PGE2 binding-inhibition activities of test compounds for cell membranes on which human EP2, human EP3, and human EP4 receptors were stably expressed were measured.
# (§2) As the membrane fractions of the prostaglandin E receptors EP2, EP3, and EP4, 10.0 μg protein/tube each of HTS185M, HTS092M, and HTS142M of Merck Millipore were used, respectively. Each membrane fraction was incubated with a reaction mixture (250 μL/tube) containing a test compound and [3H]PGE2 at 25° C. for 60 minutes. […] After the reaction, the membrane fraction was collected on filter paper by using a cell harvester, the filter paper was transferred to a measurement vial, and the measurement was performed on a liquid scintillation counter.
# (§3) The nonspecific binding was determined as binding observed in the presence of excess amount (10 μM) of unlabeled PGE2. The measurement of the [3H]PGE2 binding-inhibiting activity of a test compound was performed by adding the test compound at various concentrations. The following buffers were used for the reaction.
# Buffer for EP2: 50 mmol/L HEPES-NaOH (pH 7.4) containing 5 mmol/L MgCl2, 1 mmol/L CaCl2), and 0.2% BSA
# rat femur = assay: Neo-osteogenesis action in rat femur; type: in vivo; conditions: female SD rats, one week after administration
# Method: Eight weeks old female SD rats (Charles River Japan) were fixed in the side lying position under triple anesthesia (medetomidine hydrochloride, midazolam, and butorphanol tartrate). After hair of the left femoral region was shaved with a hair clipper, and disinfection treatment was performed with 70% ethanol, an in situ-solidified gel solution of a test compound, specifically, a test compound dissolved in poly(lactic-co-glycolic acid) (RESOMER RG502H, produced by Evonik Industries)/poly(lactic-co-glycolic acid)-polyethylene glycol block copolymer (5050 DLG mPEG 5000, produced by Lakeshore Biomaterials)/N-methyl-2-pyrroridone (produced by Wako) (weight ratio 47%/3%/50%), was filled in a 1-mL syringe, a 21G injection needle was attached to the syringe, and the needle was transdermally stabbed from the quadriceps to the periosteum near the center of the femoral diaphyseal. Then, 100 μg as the amount of the test compound, or 50 μL as the administration volume of the solution was injected between the quadriceps and the periosteum, and the injection needle was drawn out. To the rats of the control group, the aforementioned in situ-solidified gel solution alone was administered. One week after the administration of the drug solution, the triple anesthesia was given to the animals, and they were fixed in the supine position, and euthanized by bleeding. […], circumferential tissues such as muscles were removed, the bone mineral content of the whole femur was measured by using a bone mineral analyzer DCS-600EX (produced by ALOKA), then it was divided into three portions along the long axis, and the bone mineral content of the center part (diaphysis) was evaluated. The test was performed with the groups each consisting of 6 animals.
# dog femur = assay: Neo-osteogenesis action in dog femur; type: in vivo; conditions: beagle dogs, four weeks
# Method: In order to investigate an osteogenesis-promoting action of the compounds of the present invention, for influence of administration of microspheres containing a test compound in the vicinity of the femur of dog, osteogenesis-promoting action was evaluated by measuring new bone formed after the administration.
# Nine to eleven months old female beagle dogs ([…] LABES) were anesthetized by administration of a 1:1 mixture of ketamine hydrochloride (Ketalar 500 mg, Daiichi Sankyo Propharma Co., Ltd.) and xylazine (Selactar 2% Injection, Bayer Yakuhin, Ltd.) at a dose of about 0.5 mL/kg, and isoflurane listed in Japanese Pharmacopoeia (Elucaine, Mylan Pharmaceutical) was used for maintenance anesthesia, which was administered with an inhaler IMPAC6 (VetEquip Inc.). After hair of the femoral region of the right hind leg was shaved, and disinfection treatment was performed, 350 μL of a microsphere suspension obtained by suspending microspheres (prepared according to the method of Preparation Example 1 or 2) containing a test compound (compound of Example 23) in a CMC solution was transdermally administered around the periosteum of the femoral diaphysis by using a 1-mL injection syringe and a 21G injection needle. The doses of the test compound were 0.01, 0.1, 1.0, 10, and 100 μg/site, and the aforementioned microspheres were used in an amount corresponding to each dose. As a control group, a drug liquid obtained by suspending the microspheres not containing the test compound in 350 μL of the CMC solution alone was administered. Four weeks after the administration of the drug liquid, the animals were euthanized by bleeding under pentobarbital sodium (Somnopentyl) anesthesia. The femurs of both sides were extracted, immersed in a 10% neutral buffered formalin solution, and stored. The bone mineral content of the femur was measured by using Discovery X-ray bone density analyzer (produced by Toyo Medic). The test was performed with the groups each consisting of 4 dogs
# human EP4 receptor = human EP4 receptor (Homo sapiens, UniProt P35408); assay: Receptor binding test, [3H]PGE2 binding inhibition, EP4; parameters: purchased Merck Millipore HTS142M; conditions: [3H]PGE2 1.24 nmol/L, membrane fraction HTS142M, 25°C 60 minutes
# Method: as §1, §2, §3
# Buffer for EP4: 50 mmol/L HEPES-NaOH (pH7.4) containing 5 mmol/L MgCl2, 1 mmol/L CaCl2), and 0.2% BSA
# T1 sequence (P43116 whole entry): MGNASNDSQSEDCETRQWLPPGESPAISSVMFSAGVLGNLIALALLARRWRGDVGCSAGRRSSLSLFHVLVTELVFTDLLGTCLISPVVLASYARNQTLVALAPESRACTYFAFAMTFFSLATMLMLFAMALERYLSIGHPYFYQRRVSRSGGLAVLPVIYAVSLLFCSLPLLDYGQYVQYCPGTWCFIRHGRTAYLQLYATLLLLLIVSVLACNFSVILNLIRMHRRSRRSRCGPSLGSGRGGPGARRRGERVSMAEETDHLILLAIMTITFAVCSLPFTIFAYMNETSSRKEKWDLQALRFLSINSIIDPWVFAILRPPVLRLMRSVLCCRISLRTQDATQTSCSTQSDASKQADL
# human EP4 receptor, sequence (P35408 whole entry): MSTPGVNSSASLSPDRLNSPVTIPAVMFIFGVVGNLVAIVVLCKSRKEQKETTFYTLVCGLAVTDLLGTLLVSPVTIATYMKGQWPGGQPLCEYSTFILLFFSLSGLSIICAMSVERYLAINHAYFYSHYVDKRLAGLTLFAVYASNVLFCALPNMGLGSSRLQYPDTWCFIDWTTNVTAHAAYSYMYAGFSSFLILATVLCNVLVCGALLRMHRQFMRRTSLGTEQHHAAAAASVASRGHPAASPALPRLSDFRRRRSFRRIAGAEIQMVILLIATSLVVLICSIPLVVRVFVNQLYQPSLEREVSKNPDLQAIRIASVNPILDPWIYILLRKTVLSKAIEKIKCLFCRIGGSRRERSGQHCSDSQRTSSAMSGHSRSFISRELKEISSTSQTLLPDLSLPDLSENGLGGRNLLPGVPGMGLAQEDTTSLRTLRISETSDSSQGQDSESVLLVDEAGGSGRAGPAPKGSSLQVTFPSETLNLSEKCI
compound,measurement,setting,value
"O=C(O)c1ccc(CCN2C(=O)SCCN2CC[C@@H](O)Cc2cccc(C#Cc3ccsc3)c2)s1 [Example 23, (S)-5-(2-(4-(3-Hydroxy-4-(3-(thiophen-3-ylethynyl)phenyl)butyl)-2-oxo-1,3,4-thiadiazinan-3-yl)ethyl)thiophene-2-carboxylic acid]",IC50,human EP2 receptor,> 1000 nM
same,Bone mineral content of femur 1/3 center region (mg) Left femur (administered with compound),rat femur; 100 μg test compound in in situ-solidified gel solution injected between quadriceps and periosteum,82.7 ± 6.7 mg
same,Bone mineral content of femur 1/3 center region (mg) Right femur (no administration of compound),"rat femur; contralateral femur, 100 μg test compound given at left femur",58.9 ± 2.9 mg
same,Bone mineral content of femur 1/3 center region (g) Left femur (no administration of compound),"dog femur; microspheres containing compound of Example 23, 0.01 μg/site at right femur",2.9 ± 0.4 g
same,Bone mineral content of femur 1/3 center region (g) Right femur (administered with compound),"dog femur; microspheres containing compound of Example 23, 0.01 μg/site",2.9 ± 0.4 g
same,Bone mineral content of femur 1/3 center region (g) Left femur (no administration of compound),"dog femur; microspheres containing compound of Example 23, 0.1 μg/site at right femur",2.6 ± 0.1 g
same,Bone mineral content of femur 1/3 center region (g) Right femur (administered with compound),"dog femur; microspheres containing compound of Example 23, 0.1 μg/site",2.7 ± 0.2 g
same,Bone mineral content of femur 1/3 center region (g) Left femur (no administration of compound),"dog femur; microspheres containing compound of Example 23, 1.0 μg/site at right femur",3.0 ± 0.1 g
same,Bone mineral content of femur 1/3 center region (g) Right femur (administered with compound),"dog femur; microspheres containing compound of Example 23, 1.0 μg/site",4.1 ± 0.4 g
same,Bone mineral content of femur 1/3 center region (g) Left femur (no administration of compound),"dog femur; microspheres containing compound of Example 23, 10 μg/site at right femur",2.8 ± 0.3 g
same,Bone mineral content of femur 1/3 center region (g) Right femur (administered with compound),"dog femur; microspheres containing compound of Example 23, 10 μg/site",6.4 ± 0.7 g
same,Bone mineral content of femur 1/3 center region (g) Left femur (no administration of compound),"dog femur; microspheres containing compound of Example 23, 100 μg/site at right femur",2.7 ± 0.4 g
same,Bone mineral content of femur 1/3 center region (g) Right femur (administered with compound),"dog femur; microspheres containing compound of Example 23, 100 μg/site",8.2 ± 1.1 g
same,IC50,human EP4 receptor,4.35 nM
